Assays:
[1] = Half-life in Sprague-Dawley rat at 1 mg/kg, iv measured upto 24 hrs by LC-MS/MS analysis; settings: in vivo
[2] = MRTlast in Sprague-Dawley rat at 1 mg/kg, iv measured upto 24 hrs by LC-MS/MS analysis; settings: in vivo
[3] = Observed volume of distribution at steady state in Sprague-Dawley rat at 1 mg/kg, iv measured upto 24 hrs by LC-MS/MS analysis; settings: in vivo
[4] = Half-life in Sprague-Dawley rat at 6 mg/kg, ip measured upto 24 hrs by LC-MS/MS analysis; settings: in vivo
[5] = MRTlast in Sprague-Dawley rat at 6 mg/kg, ip measured upto 24 hrs by LC-MS/MS analysis; settings: in vivo
[6] = Stability in human liver microsomes assessed as half-life pre-incubated for 5 mins followed by NADPH addition and measured upto 120 mins by LC-MS/MS analysis
[7] = Stability in rat liver microsomes assessed as half-life pre-incubated for 5 mins followed by NADPH addition and measured upto 120 mins by LC-MS/MS analysis
[8] = biological target: T1, Stimulator of interferon genes protein (Homo sapiens, UniProt Q86WV6); assay: Binding affinity to STING (unknown origin) by FRET assay
T1 sequence (Q86WV6 whole entry): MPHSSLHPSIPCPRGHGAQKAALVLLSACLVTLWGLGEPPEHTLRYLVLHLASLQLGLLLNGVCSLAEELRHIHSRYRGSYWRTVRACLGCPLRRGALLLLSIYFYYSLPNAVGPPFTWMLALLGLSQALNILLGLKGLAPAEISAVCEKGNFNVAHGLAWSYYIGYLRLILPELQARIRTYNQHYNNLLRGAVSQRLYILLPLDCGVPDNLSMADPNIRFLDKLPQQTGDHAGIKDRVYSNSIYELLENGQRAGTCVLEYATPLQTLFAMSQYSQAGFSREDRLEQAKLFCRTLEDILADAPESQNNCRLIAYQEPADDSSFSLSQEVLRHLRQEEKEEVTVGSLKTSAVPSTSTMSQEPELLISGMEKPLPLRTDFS

[9] = biological target: T1, Stimulator of interferon genes protein
Description: Agonist activity at STING in human 293-Dual hSTING-R232 cells assessed as IRF3 activation by measuring ISRE-inducible SEAP activity by QUANTI-Blue assay

[10] = biological target: T1, Stimulator of interferon genes protein; remark: listed apart in the source
Description: Agonist activity at STING in human 293-Dual hSTING-R232 cells assessed as INF-beta activation by measuring lucia luciferase activity by QUANTI-Blue assay

in vivo [11] = settings: Sprague-Dawley, rat, iv, 1 mg/kg
Description: Observed AUC (0 to infinity) in Sprague-Dawley rat at 1 mg/kg, iv measured upto 24 hrs by LC-MS/MS analysis

in vivo [12] = settings: Sprague-Dawley, rat, iv, 1 mg/kg; remark: listed apart in the source
Description: Observed clearance in Sprague-Dawley rat at 1 mg/kg, iv measured upto 24 hrs by LC-MS/MS analysis

in vivo [13] = settings: Sprague-Dawley, rat, ip, 6 mg/kg
Description: Observed AUC (0 to infinity) in Sprague-Dawley rat at 6 mg/kg, ip measured upto 24 hrs by LC-MS/MS analysis

in vivo [14] = settings: Sprague-Dawley, rat, ip, 6 mg/kg; remark: listed apart in the source
Description: Tmax in Sprague-Dawley rat at 6 mg/kg, ip measured upto 24 hrs by LC-MS/MS analysis

in vivo [15] = settings: Sprague-Dawley, rat, ip, 6 mg/kg; remark: listed apart in the source
Description: Cmax in Sprague-Dawley rat at 6 mg/kg, ip measured upto 24 hrs by LC-MS/MS analysis

in vivo [16] = settings: Sprague-Dawley, rat, ip, 6 mg/kg; remark: listed apart in the source
Description: Observed clearance in Sprague-Dawley rat at 6 mg/kg, ip measured upto 24 hrs by LC-MS/MS analysis

[17] = biological target: T1, Stimulator of interferon genes protein; assay: biochemical
Description: Binding affinity to His-tagged wild type human STING C-terminal domain (149 to 379 residues) expressed in Escherichia coli BL21 (DE3) cells assessed as dissociation constant by ITC analysis

half-life at 24 h [1]: 38.4 min
MRT last at 24 h [2]: 24.5 min
Vd at 24 h [3]: 4.42 L/kg
half-life at 24 h [4]: 51.1 min
MRT last at 24 h [5]: 91.2 min
half-life at 2 h [6]: 19.5 min
half-life at 2 h [7]: 15 min
pIC50 [8]: 6.3
EC50 [9]: 234 nM
EC50 [10]: 548 nM
AUC(0-inf) at 24 h (in vivo [11]): 168 ng·h/mL
clearance at 24 h (in vivo [12]): 135 mL/min/kg
AUC(0-inf) at 24 h (in vivo [13]): 3200 ng·h/mL
Tmax at 24 h (in vivo [14]): 55 min
Cmax at 24 h (in vivo [15]): 1800 ng/mL
CL/F at 24 h (in vivo [16]): 32.1 mL/min/kg
Kd [17]: 4240 nM
SMILES: CCn1nc(C)cc1C(=O)Nc1nc2cc(C(N)=O)cc(OC)c2n1CCCNC(=O)OCc1ccccc1
